Test results published in ChEMBL document CHEMBL1641458, “A journey from benzanilides to dithiobenzanilides: Synthesis of selective spasmolytic compounds” (Bioorg Med Chem, 2011).

Assays:
Aorta = assay: tissue or blood; format: functional, tissue-based; conditions: Cavia porcellus, 0.75 h
Ileum = assay: tissue or blood; format: functional, tissue-based; conditions: Cavia porcellus, 0.75 h
[1] = Antispasmodic activity in guinea pig arteria pulmonalis ring assessed as inhibition of 60 mM KCl-induced contraction after 45 mins; format: functional, Cavia porcellus

Measured: IC50

COc1cc(C(=S)Nc2cccc(NC(=S)c3cc(OC)c(OC)c(OC)c3)c2)cc(OC)c1OC
> 100 µM: all assays above
